In PubChem BioAssay (NCI) one finds TGI and GI50 data, which are given here for 11 molecules.

Molecules are shown by their SMILES.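 A five-concentration, 48-hour dose response in 96-well plates underlies each endpoint, interpolated linearly between surrounding concentrations. The concentration for 50% growth inhibition is given as GI50. At the TGI there is no net growth.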

Test systems include CCRF-CEM leukemia; KM20L2 colon; LOX IMVI melanoma; M19-MEL melanoma; OVCAR-8 ovarian; RPMI-8226 leukemia; SF-295 CNS; SW-620 colon; UACC-257 melanoma; ACHN renal.
Holding throughout (experiment): inhibition of tumour cell growth, NCI panel, 48 h

For `N#CC(C#N)=C1SCC(=O)CS1`, the TGI in the assay with CCRF-CEM leukemia, with KM20L2 colon, in the assay with LOX IMVI melanoma, with M19-MEL melanoma, with OVCAR-8 ovarian and with RPMI-8226 leukemia was over 100 µM each time. The TGI with SF-295 CNS, in the assay on SW-620 colon and with UACC-257 melanoma was over 100 µM in each case.
Take `Cn1c(=O)c(C(=O)NC(=O)OCc2ccccc2)cn(CCSCCOC(=O)NCCCCCCNC(=O)OCCSCCn2cc(C(=O)NC(=O)OCc3ccccc3)c(=O)n(C)c2=O)c1=O`: the TGI in the assay with ACHN renal, with CCRF-CEM leukemia, in the assay on KM20L2 colon, with LOX IMVI melanoma, with M19-MEL melanoma and in the assay with OVCAR-8 ovarian was over 100 µM throughout. Also, the TGI in the assay on RPMI-8226 leukemia and in the assay with SW-620 colon was over 100 µM each time.
With `Cc1cccc2c1C/C(=C1\CCc3c(C)cccc31)C2=O`, the TGI in the assay with ACHN renal, in the assay with CCRF-CEM leukemia, in the assay with KM20L2 colon, in the assay on LOX IMVI melanoma, in the assay with M19-MEL melanoma and in the assay with OVCAR-8 ovarian was over 100 µM in each case. The TGI with SF-295 CNS, in the assay on SW-620 colon and with UACC-257 melanoma was over 100 µM each time.
As to `Cc1cc(=O)oc2cc(OCc3nc4ccccc4c(=O)[nH]3)ccc12`, the TGI with ACHN renal, in the assay on CCRF-CEM leukemia, with KM20L2 colon, in the assay with LOX IMVI melanoma, with M19-MEL melanoma and in the assay on OVCAR-8 ovarian was over 100 µM throughout. Also, the TGI in the assay on RPMI-8226 leukemia, with SF-295 CNS and in the assay on SW-620 colon was over 100 µM throughout.
Consider `CCOc1ccccc1NC(=O)C1=C(C)NC(C)=C(C(=O)Nc2ccccc2OCC)C1c1ccc(NC(C)=O)cc1`, for which the TGI in the assay with ACHN renal is over 100 µM; in the assay on CCRF-CEM leukemia, over 100 µM; in the assay with KM20L2 colon it was 98.9 µM; in the assay with LOX IMVI melanoma it was over 100 µM; in the assay with M19-MEL melanoma it was over 100 µM; in the assay on OVCAR-8 ovarian it was over 100 µM. The TGI was over 100 µM in the assay with RPMI-8226 leukemia, 71.5 µM in the assay with SF-295 CNS, over 100 µM in the assay with SW-620 colon and over 100 µM in the assay with UACC-257 melanoma.
In the case of `Cc1cccc2c1C(=O)OC2(C)c1cccc2ccccc12` (stereo not drawn), the TGI in the assay with ACHN renal was over 100 µM; with CCRF-CEM leukemia, 80.4 µM; in the assay on KM20L2 colon, 59.5 µM; in the assay on LOX IMVI melanoma, over 100 µM; in the assay with M19-MEL melanoma, over 100 µM; in the assay on OVCAR-8 ovarian, over 100 µM. Also, the TGI in the assay with RPMI-8226 leukemia, with SF-295 CNS, in the assay on SW-620 colon and in the assay with UACC-257 melanoma was over 100 µM in each case.
As to `C/C(=C\CC[C@]1(C)OC(C)(C)OC1CC/C(C)=C/CO[Si](c1ccccc1)(c1ccccc1)C(C)(C)C)CC/C=C/CO[Si](C)(C)C(C)(C)C` (stereo partly drawn), the TGI in the assay on ACHN renal, with CCRF-CEM leukemia, in the assay with KM20L2 colon, in the assay with LOX IMVI melanoma, in the assay with M19-MEL melanoma and in the assay on OVCAR-8 ovarian was over 100 µM each time. Further, the TGI with RPMI-8226 leukemia, in the assay with SF-295 CNS, in the assay on SW-620 colon and in the assay with UACC-257 melanoma was over 100 µM throughout.
As for `Cc1ccc(/C=C2\CCCC\C2=N\O)cc1`, the TGI in the assay with ACHN renal, in the assay on CCRF-CEM leukemia, in the assay on KM20L2 colon, in the assay with LOX IMVI melanoma, with M19-MEL melanoma and in the assay on OVCAR-8 ovarian was over 100 µM in each case. The TGI with SF-295 CNS and with SW-620 colon was over 100 µM throughout.
As for `C[CH2][Sn]([CH2]C)([O]C(=O)c1cccc(F)c1)[O][Sn]([CH2]C)([CH2]C)[O]C(=O)c1cccc(F)c1`, the GI50 with ACHN renal was 18.7 µM; in the assay with CCRF-CEM leukemia, 4.28 µM; in the assay on KM20L2 colon it was 38.4 µM; with LOX IMVI melanoma, 15.9 µM; in the assay with M19-MEL melanoma, 16.8 µM; in the assay on OVCAR-8 ovarian it was 17.5 µM. Further, the GI50 in the assay on SF-295 CNS was 18.7 µM; in the assay on SW-620 colon it was 17.2 µM; in the assay on UACC-257 melanoma it was 16.8 µM. The TGI with ACHN renal was 32.7 µM; with CCRF-CEM leukemia it was 34.7 µM; in the assay on KM20L2 colon it was over 100 µM; with LOX IMVI melanoma, 29.6 µM; in the assay on M19-MEL melanoma it was 31.9 µM; with OVCAR-8 ovarian it was 32.3 µM. For the same molecule, the TGI in the assay on SF-295 CNS was found to be 36.9 µM; in the assay with SW-620 colon, 30.9 µM; in the assay on UACC-257 melanoma, 30.9 µM.
As to `CC1=Nn2c(nnc2-c2ccc(N)cc2)NC(C)(C)C1`, the TGI in the assay on ACHN renal, in the assay on CCRF-CEM leukemia, in the assay with KM20L2 colon, in the assay on LOX IMVI melanoma, in the assay with M19-MEL melanoma and in the assay with RPMI-8226 leukemia was over 100 µM in each case. The TGI in the assay on SF-295 CNS, in the assay with SW-620 colon and in the assay on UACC-257 melanoma was over 100 µM throughout.
For `NC(CCSC(F)F)C(=O)O` (stereo not drawn), the TGI with ACHN renal, in the assay with CCRF-CEM leukemia, in the assay on KM20L2 colon, in the assay with LOX IMVI melanoma, in the assay with M19-MEL melanoma and in the assay with OVCAR-8 ovarian was over 100 µM each time. The TGI with SF-295 CNS and in the assay on SW-620 colon was over 100 µM each time.
